Results reported in patent US11207296B2, “XPA inhibitor compounds and their use” (INDIANA UNIVERSITY RESEARCH AND TECHNOLOGY CORPORATION, priority 2017, dated 2021).
Where “and” joins values, the source holds several entries; their conditions need not be identical. Equal entries are not always repeated.

Each molecule was assayed against full length XPA protein (Homo sapiens, UniProt P23025) (assay: biochemical). Conditions: IC50 (μM), EMSA, 32P labeled 30 bp duplex DNA containing a single 1,2 dGpG cisplatin adduct, several values in a cell = separate determinations.
full length XPA protein, sequence (P23025 whole entry): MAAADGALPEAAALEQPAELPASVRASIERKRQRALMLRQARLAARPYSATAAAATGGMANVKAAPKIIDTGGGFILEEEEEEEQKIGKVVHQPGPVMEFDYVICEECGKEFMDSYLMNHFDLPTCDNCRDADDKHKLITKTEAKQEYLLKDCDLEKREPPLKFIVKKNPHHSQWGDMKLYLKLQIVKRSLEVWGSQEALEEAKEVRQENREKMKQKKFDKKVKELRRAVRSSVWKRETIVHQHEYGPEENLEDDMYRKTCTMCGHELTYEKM
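Also: XPA expressed in Sf9 cells, preincubated with compound on ice before adding DNA, complex resolved on native polyacrylamide gel at 4 °C, PhosphorImager band intensity, binding inhibition versus DMSO.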
Method: Purified XPA (lanes 2-18) was mixed with DMSO (Lane 2, C) control or the indicated compound at a concentration of 50 μM (Lanes 3-18). ^32P labeled ds-platinum damaged DNA was added and incubation continued for 30 minutes on ice. The products were separated on a 6% native gel by electrophoresis at 4° C. Products were detected and quantified by PhosphorImager analysis.
EMSA was carried out using previously described procedure with the following modification. Reactions were performed in volume of 20 μL, containing a ^32P labeled 30 bp duplex DNA containing a single 1,2 dGpG cisplatin adduct. Compounds were pre-incubated on ice with the indicated amount of XPA and products separated by electrophoresis on a non-denaturing 6% polyacrylamide gel. Gels were cooled, loaded and electrophoresis performed at 4° C. Gels were used to expose a Phosphorlmager screen and band intensity determined and % binding and inhibition calculated as we have previously described.

SMILES	IC50
CC1=NN(c2cccc(C(=O)O)c2)C(=O)/C1=C\c1ccc(-c2ccc(Cl)c(C(=O)COc3ccccc3Cl)c2)o1 [Compound 2249]	2.5 µM
COc1cccc(NC(=O)c2cc(-c3ccc(/C=C4\C(=O)N(c5cccc(C(=O)O)c5)N=C4C)s3)ccc2Cl)c1 [NG-03-203, (Z)-3-(4-((5-(4-chloro-3-((3-methoxyphenyl)carbamoyl)phenyl)thiophen-2-yl)methylene)-3-methyl-5-oxo-4,5-dihydro-1H-pyrazol-1-yl)benzoic acid]	3 µM and 7.5 µM and 11 µM
COc1cccc(NC(=O)c2cc(-c3ccc(/C=C4\C(=O)N(c5ccc(C(=O)O)cc5)N=C4C)s3)ccc2Cl)c1 [NG-03-236, (Z)-4-(4-((5-(4-Chloro-3-((3-methoxyphenyl)carbamoyl)phenyl)thiophen-2-yl)methylene)-3-methyl-5-oxo-4,5-dihydro-1H-pyrazol-1-yl)benzoic acid]	12 µM
CCOC(=O)c1cccc(N2N=C(C)/C(=C/c3ccc(-c4ccc(Cl)c(C(=O)NCc5ccc(F)cc5)c4)o3)C2=O)c1 [Compound 33a, (Z)-Ethyl 3-(4-((5-(4-chloro-3-((4-fluorobenzyl)carbamoyl)phenyl)furan-2-yl)methylene)-3-methyl-5-oxo-4,5-dihydro-1H-pyrazol-1-yl)benzoate]	> 25 µM
COc1cccc(NC(=O)c2cc(-c3ccc(/C=C4\C(=O)N(c5cccc(C#N)c5)N=C4C)o3)ccc2Cl)c1 [NG-03-193, (Z)-2-chloro-5-(5-((1-(3-cyanophenyl)-3-methyl-5-oxo-1,5-dihydro-4H-pyrazol-4-ylidene)methyl)furan-2-yl)-N-(3-methoxyphenyl)benzamide]	> 25 µM
COc1ccc(NC(=O)c2cc(-c3ccc(CC4C(=O)N(c5cccc(C(=O)O)c5)N=C4C)o3)ccc2Cl)cc1OC (stereo not drawn) [NG-03-206, 3-(4-((5-(4-Chloro-3-((3,4-dimethoxyphenyl)carbamoyl)phenyl)furan-2-yl)methyl)-3-methyl-5-oxo-4,5-dihydro-1H-pyrazol-1-yl)benzoic acid]	11 µM
C=CCCCc1cccc(-c2ccc(/C=C3/C=NN(c4cccc(C(=O)O)c4)C3=O)o2)c1 [Compound 2922]	3 µM
CC1=NN(c2ccc(C(=O)O)cc2)C(=O)/C1=C\c1ccc(-c2ccc(Cl)c(C(=O)O)c2)s1 [NG-03-234, (Z)-5-(5-((1-(4-Carboxyphenyl)-3-methyl-5-oxo-1,5-dihydro-4H-pyrazol-4-ylidene)methyl)thiophen-2-yl)-2-chlorobenzoic acid]	12 µM
CCOC(=O)c1cccc(N2N=C(C)C(=Cc3ccc(C(=O)O)o3)C2=O)c1 [NG-02-154, 5-((1-(3-(ethoxycarbonyl)phenyl)-3-methyl-5-oxo-1,5-dihydro-4H-pyrazol-4-ylidene)methyl)furan-2-carboxylic acid]	45 µM
CC1=NN(c2ccc(C(=O)O)cc2)C(=O)C1Cc1ccc(-c2ccc(Cl)c(C(=O)NCc3ccc(F)cc3)c2)o1 (stereo not drawn) [NG-02-151, 4-(4-((5-(4-Chloro-3-((4-fluorobenzyl)carbamoyl)phenyl)furan-2-yl)methyl)-3-methyl-5-oxo-4,5-dihydro-1H-pyrazol-1-yl)benzoic acid]	15 µM and 35 µM
COc1cccc(NC(=O)c2cc(-c3ccc(CC4C(=O)N(c5ccc(C(=O)O)cc5)N=C4C)s3)ccc2Cl)c1 (stereo not drawn) [NG-03-238, 4-(4-((5-(4-Chloro-3-((3-methoxyphenyl)carbamoyl)phenyl)thiophen-2-yl)methyl)-3-methyl-5-oxo-4,5-dihydro-1H-pyrazol-1-yl)benzoic acid]	45 µM
CC1=NN(c2cccc(C(=O)O)c2)C(=O)/C1=C\c1ccc(-c2ccc(Cl)c(C(=O)NCc3ccccc3Cl)c2)o1 [NG-03-271, (Z)-3-(4-((5-(4-chloro-3-((2-chlorobenzyl)carbamoyl)phenyl)furan-2-yl)methylene)-3-methyl-5-oxo-4,5-dihydro-1H-pyrazol-1-yl)benzoic acid]	40 µM
CC1=NN(c2cccc(C(=O)O)c2)C(=O)C1Cc1ccc(-c2ccc(Cl)c(C(=O)NCc3ccc(F)cc3)c2)o1 (stereo not drawn) [NG-01-65, 3-(4-((5-(4-Chloro-3-((4-fluorobenzyl)carbamoyl)phenyl)furan-2-yl)methyl)-3-methyl-5-oxo-4,5-dihydro-1H-pyrazol-1-yl)benzoic acid]	> 25 µM
CC1=NN(c2cccc(C(=O)O)c2)C(=O)C1Cc1ccc(-c2ccc(Cl)c(C(=O)NCC3CC3)c2)s1 (stereo not drawn) [NG-03-231, 3-(4-((5-(4-Chloro-3-((cyclopropylmethyl)carbamoyl)phenyl)thiophen-2-yl)methyl)-3-methyl-5-oxo-4,5-dihydro-1H-pyrazol-1-yl)benzoic acid]	40 µM
COc1cccc(NC(=O)c2cc(-c3ccc(CC4C(=O)N(c5cccc(C(=O)O)c5)N=C4C)s3)ccc2Cl)c1 (stereo not drawn) [NG-03-207, 3-(4-((5-(4-chloro-3-((3-Methoxyphenyl)carbamoyl)phenyl)thiophen-2-yl)methyl)-3-methyl-5-oxo-4,5-dihydro-1H-pyrazol-1-yl)benzoic acid]	12.5 µM
CC1=NN(c2cccc(C(=O)O)c2)C(=O)/C1=C\c1ccc(-c2cccc(C(=O)OC(C)C)c2)o1 [Compound 3125]	3 µM
CC1=NN(c2cccc(C(=O)O)c2)C(=O)/C1=C\c1ccc(-c2ccc(Cl)c(C(=O)NC3CCOCC3)c2)o1 [Compound 34g, (Z)-3-(4-((5-(4-Chloro-3-((tetrahydro-2H-pyran-4-yl)carbamoyl)phenyl)furan-2-yl)methylene)-3-methyl-5-oxo-4,5-dihydro-1H-pyrazol-1-yl)benzoic acid]	40 µM
CC1=NN(c2cccc(C(=O)O)c2)C(=O)/C1=C\c1ccc(-c2ccc(Cl)c(C(=O)NCc3ccccc3)c2)o1 [NG-03-270, (Z)-3-(4-((5-(3-(Benzylcarbamoyl)-4-chlorophenyl)furan-2-yl)methylene)-3-methyl-5-oxo-4,5-dihydro-1H-pyrazol-1-yl)benzoic acid]	36 µM
CC1=NN(c2cccc(C(=O)O)c2)C(=O)/C1=C\c1ccc(-c2ccc(Cl)c(C(=O)NC3CC3)c2)o1 [Compound 34f, (Z)-3-(4-((5-(4-Chloro-3-(cyclopropylcarbamoyl)phenyl)furan-2-yl)methylene)-3-methyl-5-oxo-4,5-dihydro-1H-pyrazol-1-yl)benzoic acid]	32 µM
CC1=NN(c2cccc(C(=O)O)c2)C(=O)C1Cc1ccc(-c2ccc(Cl)c(C(=O)NCC3CC3)c2)o1 (stereo not drawn) [NG-01-72R, 3-(4-((5-(4-Chloro-3-((cyclopropylmethyl)carbamoyl)phenyl)furan-2-yl)methyl)-3-methyl-5-oxo-4,5-dihydro-1H-pyrazol-1-yl)benzoic acid]	42 µM
CC1=NN(c2cccc(C(=O)O)c2)C(=O)/C1=C\c1ccc(-c2ccc(Cl)c(C(=O)NCc3ccc(F)cc3)c2)s1 [NG-03-227, (Z)-3-(4-((5-(4-Chloro-3-((4-fluorobenzyl)carbamoyl)phenyl)thiophen-2-yl)methylene)-3-methyl-5-oxo-4,5-dihydro-1H-pyrazol-1-yl)benzoic acid]	7 µM

Continued, values first:

IC50	SMILES
> 50 µM	CCOC(=O)c1cccc(N2N=C(C(F)(F)F)C(=Cc3ccc(-c4ccc(Cl)c(C(=O)Nc5cccc(OC)c5)c4)o3)C2=O)c1 (mixture of isomers) [NG-04-311, ethyl 3-(4-((5-(4-chloro-3-((3-methoxyphenyl)carbamoyl)phenyl)furan-2-yl)methylene)-5-oxo-3-(trifluoromethyl)-4,5-dihydro-1H-pyrazol-1-yl)benzoate]
> 50 µM	O=C(O)c1cccc(N2N=C(C(F)(F)F)/C(=C/c3ccc(-c4ccc(Cl)c(C(=O)NCC5CC5)c4)o3)C2=O)c1 [NG-04-304, 3-(4-((5-(4-chloro-3-((cyclopropylmethyl)carbamoyl)phenyl)furan-2-yl)methylene)-5-oxo-3-(trifluoromethyl)-4,5-dihydro-1H-pyrazol-1-yl)benzoic acid]
40 µM	CCOC(=O)c1cccc(N2N=C(C(F)(F)F)/C(=C/c3ccc(-c4ccc(Cl)c(C(=O)O)c4)o3)C2=O)c1 [NG-04-300, 2-chloro-5-(5-((1-(3-(ethoxycarbonyl)phenyl)-5-oxo-3-(trifluoromethyl)-1,5-dihydro-4H-pyrazol-4-ylidene)methyl)furan-2-yl)benzoic acid]
> 50 µM	COc1cccc(NC(=O)c2cc(-c3ccc(/C=C4\C(=O)N(c5cccc(C(=O)O)c5)N=C4C(F)(F)F)o3)ccc2Cl)c1 [NG-04-312, 3-(4-((5-(4-chloro-3-((3-methoxyphenyl)carbamoyl)phenyl)furan-2-yl)methylene)-5-oxo-3-(trifluoromethyl)-4,5-dihydro-1H-pyrazol-1-yl)benzoic acid]
38 µM	COc1cccc(CNC(=O)c2cc(-c3ccc(/C=C4\C(=O)N(c5ccc(C(=O)O)cc5)N=C4C)o3)ccc2Cl)c1 [NG-03-286, (Z)-4-(4-((5-(4-Chloro-3-((3-methoxybenzyl)carbamoyl)phenyl)furan-2-yl)methylene)-3-methyl-5-oxo-4,5-dihydro-1H-pyrazol-1-yl)benzoic acid]
35 µM	CC1=NN(c2cccc(C(=O)O)c2)C(=O)C1=Cc1ccc(-c2ccc(Cl)c(C(=O)NCC3CCCCC3)c2)o1 (mixture of isomers) [NG-04-274, 3-(4-((5-(4-chloro-3-((cyclohexylmethyl)carbamoyl)phenyl)furan-2-yl)methylene)-3-methyl-5-oxo-4,5-dihydro-1H-pyrazol-1-yl)benzoic acid]
40 µM	COc1cccc(CNC(=O)c2cc(-c3ccc(CC4C(=O)N(c5ccc(C(=O)O)cc5)N=C4C)o3)ccc2Cl)c1 (stereo not drawn) [NG-04-294, 4-(4-((5-(4-chloro-3-((3-methoxybenzyl)carbamoyl)phenyl)furan-2-yl)methyl)-3-methyl-5-oxo-4,5-dihydro-1H-pyrazol-1-yl)benzoic acid]
15 µM	O=C(O)c1cccc(N2N=C(C(F)(F)F)/C(=C/c3ccc(-c4ccc(Cl)c(C(=O)O)c4)o3)C2=O)c1 [NG-04-314, 5-(5-((1-(3-carboxyphenyl)-5-oxo-3-(trifluoromethyl)-1,5-dihydro-4H-pyrazol-4-ylidene)methyl)furan-2-yl)-2-chlorobenzoic acid]
30 µM	COc1cccc(NC(=O)c2cc(-c3ccc(CC4C(=O)N(c5cccc(C(=O)O)c5)N=C4C(F)(F)F)o3)ccc2Cl)c1 (stereo not drawn) [NG-04-322, 3-(4-((5-(4-chloro-3-((3-methoxyphenyl)carbamoyl)phenyl)furan-2-yl)methyl)-5-oxo-3-(trifluoromethyl)-4,5-dihydro-1H-pyrazol-1-yl)benzoic acid]
